Results reported in US20250011288A1 (BRISTOL-MYERS SQUIBB COMPANY, priority 2021, published 2025).

Each compound was assayed against T1, human RXFP1 (Homo sapiens, UniProt Q9HBX9) (assay: human RXFP1 (hRXFP1) HEK293 cAMP assay (HTRF)). Settings: HEK293 cells stably expressing human RXFP1, 30 min at room temperature.
T1 construct: expressed in transfected cells
T1 sequence (Q9HBX9 1-757): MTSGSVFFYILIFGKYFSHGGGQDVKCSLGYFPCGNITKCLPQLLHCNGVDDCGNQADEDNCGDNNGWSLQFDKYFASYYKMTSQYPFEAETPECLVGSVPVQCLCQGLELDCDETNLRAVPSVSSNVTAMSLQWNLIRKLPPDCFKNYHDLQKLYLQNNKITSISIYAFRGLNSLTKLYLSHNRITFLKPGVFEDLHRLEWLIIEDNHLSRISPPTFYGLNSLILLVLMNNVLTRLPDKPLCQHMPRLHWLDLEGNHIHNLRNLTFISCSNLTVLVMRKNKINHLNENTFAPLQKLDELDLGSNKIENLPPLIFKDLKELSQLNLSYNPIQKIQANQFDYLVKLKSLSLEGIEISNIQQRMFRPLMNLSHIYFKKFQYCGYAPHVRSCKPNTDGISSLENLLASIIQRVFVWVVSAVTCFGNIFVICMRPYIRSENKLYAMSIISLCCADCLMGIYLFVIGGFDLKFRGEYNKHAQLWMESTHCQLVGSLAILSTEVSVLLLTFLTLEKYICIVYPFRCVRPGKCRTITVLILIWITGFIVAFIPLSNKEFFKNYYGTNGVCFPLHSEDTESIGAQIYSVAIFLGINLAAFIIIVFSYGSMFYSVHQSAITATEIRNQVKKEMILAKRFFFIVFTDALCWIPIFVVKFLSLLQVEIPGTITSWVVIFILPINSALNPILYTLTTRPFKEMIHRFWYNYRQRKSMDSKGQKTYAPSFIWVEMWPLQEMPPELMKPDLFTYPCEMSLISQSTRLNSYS
Type: cell-based
Outline: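 HEK293 cells stably expressing human RXFP1 (1500 cells/well) in HBSS/20 mM HEPES/0.05% BSA/0.5 mM IBMX, treated with compound (0.010 nM–50 µM final, 2% DMSO) for 30 min at room temperature. Intracellular cAMP read by HTRF; potency from 4-parameter logistic fit of cAMP versus concentration.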

Question: With `CC(C)(O)COc1ccc2c(C(=O)N[C@@H]3C4CCC(/C4=C/C(F)(F)F)[C@@H]3C(=O)Nc3ccc(F)c(C(F)(F)F)c3)nn(C(F)F)c2c1` (stereo partly drawn) [Example 57, 1-(difluoromethyl)-N-[(2R,3S,7Z)-3-{[4-fluoro-3-(trifluoromethyl)phenyl]carbamoyl}-7-(2,2,2-trifluoro-ethylidene)bicyclo[2.2.1]heptan-2-yl]-6-(2-hydroxy-2-methylpropoxy)-1H-indazole-3-carboxamide] as the compound, how does the EC50 read?
Answer: Its EC50 is 3900 nM.

Question: For `COc1cscc1C(=O)N[C@@H]1C2CCC(C2=C(C)C)[C@@H]1C(=O)Nc1ccc(F)c(C(F)(F)F)c1` (stereo partly drawn) [Example 9, N-[(2R,3S)-3-{[4-fluoro-3-(trifluoromethyl)phenyl]carbamoyl}-7-(propan-2-ylidene)bicyclo [2.2.1]heptan-2-yl]-4-methoxy-thiophene-3-carboxamide], which EC50 is on record?
Answer: Its EC50 is 1400 nM.

Question: For `COc1ncc(-c2cc(C(=O)O)ccc2F)cc1C(=O)N[C@@H]1C2CCC(/C2=C/c2ccccc2)[C@@H]1C(=O)Nc1ccc(F)c(C(F)(F)F)c1` (stereo partly drawn) [Example 25, 4-Fluoro-3-(5-{[(2R,3S,7Z)-3-{[4-fluoro-3-(trifluoromethyl)phenyl]carbamoyl}-7-(phenylmethylidene)bicyclo[2.2.1]heptan-2-yl]carbamoyl}-6-methoxypyridin-3-yl)benzoic acid], which EC50 is on record?
Answer: Its EC50 is 33 nM.

Question: For `COc1ncc(C(=O)N2CC3(COC3)C2)cc1C(=O)N[C@H]1[C@@H](C(=O)Nc2ccc(F)c(C(F)(F)F)c2)[C@H]2CC[C@@H]1/C2=C\C1CC1` [Example 76, N-[(1R,2R, 3S,4R,7Z)-7-(cyclopropyl-methylidene)-3-{[4-fluoro-3-(trifluoromethyl)phenyl]carbamoyl}bicyclo[2.2.1]heptan-2-yl]-2-methoxy-5-{2-oxa-6-azaspiro[3.3]heptane-6-carbonyl}pyridine-3-carboxamide], which EC50 is on record?
Answer: Its EC50 is 65 nM.

Question: Which EC50 does the source give for `COc1ncc(C2=NOC3CC(CO)CC23)cc1C(=O)N[C@@H]1C2CCC(/C2=C/C2CC2)[C@@H]1C(=O)Nc1ccc(F)c(C(F)(F)F)c1` (single isomer, unassigned) [Example 70] here?
Answer: The EC50 was 2.3 nM.

Question: Which EC50 does the source give for `Cn1cc(Br)cc(C(=O)N[C@@H]2C3CCC(/C3=C/C3CC3)[C@@H]2C(=O)Nc2ccc(F)c(C(F)(F)F)c2)c1=O` (stereo partly drawn) [Example 18, 5-bromo-N-[(2R,3S,7Z)-7-(cyclopropyl-methylidene)-3-{[4-fluoro-3-(trifluoromethyl)phenyl]carbamoyl}bicyclo [2.2.1]heptan-2-yl]-1-methyl-2-oxo-1,2-dihydropyridino-3-carboxamide] here?
Answer: The EC50 was 2100 nM.

Question: With `COc1cc2c(cc1C(=O)N[C@@H]1C3CCC(/C3=C/C3CC3)[C@@H]1C(=O)Nc1ccc(F)c(C(F)(F)F)c1)CCN(CC(C)(C)O)C2` (stereo partly shown) [Example 95] as the compound, how does the EC50 read?
Answer: The EC50 was 1600 nM.

Question: With `CC1(C)Cc2cc(C3=NOC4CC(O)(C(F)(F)F)CC34)cc(C(=O)N[C@@H]3C4CCC(/C4=C/C4CCCC4)[C@@H]3C(=O)Nc3ccc(F)c(C(F)(F)F)c3)c2O1` (single isomer, unassigned) [Example 142] as the compound, how does the EC50 read?
Answer: The EC50 was 2.2 nM.

Question: Which EC50 does the source give for `COc1ncc(C2=NOC3CC(C(C)O)CC23)cc1C(=O)N[C@H]1[C@@H](C(=O)Nc2ccc(F)c(C(F)(F)F)c2)[C@H]2CC[C@@H]1/C2=C\CCC(F)(F)F` (stereo partly drawn) [Example 124, N-((1R,2R,3S,4R,Z)-3-((4-fluoro-3-(trifluoromethyl)phenyl)carbamoyl)-7-(4,4,4-trifluorobutylidene)bicyclo[2.2.1]heptan-2-yl)-5-(5-(1-hydroxyethyl)-3a,5,6,6a-tetrahydro-4H-cyclopenta[d]isoxazol-3-yl)-2-methoxynicotinamide] here?
Answer: The EC50 was 3.6 nM.

Question: Which EC50 does the source give for `COc1ncc(C2=NOC3CC(C(OC(=O)Nc4ccccc4)C4CC4)CC23)cc1C(=O)N[C@@H]1C2CCC(/C2=C/C2CC(F)(F)C2)[C@@H]1C(=O)Nc1ccc(F)c(C(F)(F)F)c1` (stereo partly drawn) [Example 160, cyclopropyl[3-(5-{[(2R,3S,7Z)-7-1(3,3-difluorocyclobutyl)methylidene]-3-{[4-fluoro-3-(trifluoromethyl)phenyl]carbamoyl}bicyclo[2.2.1]heptan-2-yl]carbamoyl}-6-methoxypyridin-3-yl)-3aH,4H,5H,6H, 6aH-cyclopenta[d][1,2] oxazol-5-yl]methyl N-phenylcarbamate] here?
Answer: The EC50 was 8.4 nM.
